From PubChem BioAssay AID322 (DTP/NCI, 2004)
“And” between values parts separate entries of the source, which are not always exact repeats. Equal values may be shown once. Inconclusive results and toxic doses are left out.

Tested on: CD2F1 mice, P388/ADR leukemia ip, median survival T/C
Test: NCI In Vivo Anticancer Drug Screen. Data for tumor model P388 Leukemia resistant to Adriamycin; NSC 123127, Developed at Scr 08 (intraperitoneal) in CD2F1 (CDF1) mice
Conditions: endpoint: median survival time, higher = longer survival
Protocol: The antitumor activity of compounds was measured in mice bearing transplantable tumors. Survival or tumor size were measured and the results are expressed as the measurement made in the treated group (T) divided by the measurement made in the vehicle treated control group (C). The tumor model used in this assay is P388 Leukemia resistant to Adriamycin; NSC 123127, Developed at Scr 08 (intraperitoneal) in CD2F1 (CDF1) mice

[1] = dose: 50.0 mg/kg/injection, schedule: Q01DX005 (ip), vehicle: Klucel (hydroxypropylcellulose) (HPC)

## CCOC1NC(=O)Oc2ccccc21 (centres undefined)
dose: 3.12 mg/kg/injection, schedule: Q01DX005 (ip), vehicle: Klucel (hydroxypropylcellulose) (HPC)
  T/C: 101 % of control
dose: 6.25 mg/kg/injection, schedule: Q01DX005 (ip), vehicle: Klucel (hydroxypropylcellulose) (HPC)
  T/C: 100 % of control
dose: 12.5 mg/kg/injection, schedule: Q01DX005 (ip), vehicle: Klucel (hydroxypropylcellulose) (HPC)
  T/C: 94 % of control
dose: 25.0 mg/kg/injection, schedule: Q01DX005 (ip), vehicle: Klucel (hydroxypropylcellulose) (HPC)
  T/C: 87 % of control and 101 % of control and 104 % of control
[1]
  T/C: 88 % of control and 110 % of control
dose: 72.0 mg/kg/injection, schedule: Q01DX005 (ip), vehicle: Klucel (hydroxypropylcellulose) (HPC)
  T/C: 108 % of control
dose: 100.0 mg/kg/injection, schedule: Q01DX005 (ip), vehicle: Klucel (hydroxypropylcellulose) (HPC)
  T/C: 104 % of control and 118 % of control
dose: 120.0 mg/kg/injection, schedule: Q01DX005 (ip), vehicle: Klucel (hydroxypropylcellulose) (HPC)
  T/C: 116 % of control
dose: 333.0 mg/kg/injection, schedule: Q01DX005 (ip), vehicle: Klucel (hydroxypropylcellulose) (HPC)
  T/C: 153 % of control

## CCCCCCCCCCCCN1C(C)=CS/C1=C\C=C\c1scc(C)[n+]1CCCCCCCCCCCC
dose: 0.75 mg/kg/injection, schedule: Q01DX005 (ip), vehicle: saline with Tween-80
  T/C: 123 % of control
dose: 1.5 mg/kg/injection, schedule: Q01DX005 (ip), vehicle: saline with Tween-80
  T/C: 117 % of control
dose: 3.0 mg/kg/injection, schedule: Q01DX005 (ip), vehicle: saline with Tween-80
  T/C: 109 % of control

## COc1nc(C(Cl)(Cl)Cl)c(Cl)c(OC)c1Cl
[1]
  T/C: 114 % of control
dose: 90.0 mg/kg/injection, schedule: Q01DX005 (ip), vehicle: Klucel (hydroxypropylcellulose) (HPC)
  T/C: 124 % of control

## O=NNc1cnccn1
dose: 11.0 mg/kg/injection, schedule: Q01DX009 (ip), vehicle: water
  T/C: 165 % of control and 171 % of control
dose: 17.0 mg/kg/injection, schedule: Q01DX009 (ip), vehicle: water
  T/C: 201 % of control and 206 % of control
dose: 25.0 mg/kg/injection, schedule: Q01DX009 (ip), vehicle: water
  T/C: 240 % of control and 246 % of control
dose: 37.5 mg/kg/injection, schedule: Q01DX009 (ip), vehicle: water
  T/C: 277 % of control and 313 % of control
dose: 56.0 mg/kg/injection, schedule: Q01DX009 (ip), vehicle: water
  T/C: 107 % of control and 117 % of control

## O=C1NC2(CCCCC2)C(=O)N1CCN(CCCl)CCCl
dose: 2.6 mg/kg/injection, schedule: Q01DX009 (ip), vehicle: Klucel (hydroxypropylcellulose) (HPC)
  T/C: 195 % of control
dose: 4.0 mg/kg/injection, schedule: Q01DX009 (ip), vehicle: Klucel (hydroxypropylcellulose) (HPC)
  T/C: 236 % of control
dose: 6.0 mg/kg/injection, schedule: Q01DX009 (ip), vehicle: Klucel (hydroxypropylcellulose) (HPC)
  T/C: 226 % of control
dose: 9.0 mg/kg/injection, schedule: Q01DX009 (ip), vehicle: Klucel (hydroxypropylcellulose) (HPC)
  T/C: 239 % of control

## O=[N+]([O-])c1ccc(N(CCO)CCO)c2c1no[n+]2[O-]
dose: 3.12 mg/kg/injection, schedule: Q01DX005 (ip), vehicle: saline with Tween-80
  T/C: 114 % of control
dose: 6.25 mg/kg/injection, schedule: Q01DX005 (ip), vehicle: saline with Tween-80
  T/C: 124 % of control

## COc1cccc2c1C(=O)c1c(O)c3c(c(O)c1C2=O)CC(O)(C(=O)CO)CC3OC1CC(N)C(I)C(C)O1 (centres undefined)
dose: 2.2 mg/kg/injection, schedule: Q01DX001 (ip), vehicle: saline
  T/C: 98 % of control
dose: 3.3 mg/kg/injection, schedule: Q01DX001 (ip), vehicle: saline
  T/C: 99 % of control
dose: 5.0 mg/kg/injection, schedule: Q01DX001 (ip), vehicle: saline
  T/C: 108 % of control and 117 % of control
dose: 7.5 mg/kg/injection, schedule: Q01DX001 (ip), vehicle: saline
  T/C: 118 % of control
dose: 25.2 mg/kg/injection, schedule: Q01DX001 (ip), vehicle: saline
  T/C: 150 % of control

## O=C(O)CCCc1ccc(N(CCCl)CCCl)cc1
dose: 1.25 mg/kg/injection, schedule: Q01DX005 (ip), vehicle: saline with Tween-80
  T/C: 120 % of control
dose: 10.0 mg/kg/injection, schedule: Q01DX005 (ip), vehicle: saline with Tween-80
  T/C: 205 % of control

## NCCCNCCCCNC(=O)C(O)NC(=O)CCCCCCN=C(N)N (centres undefined)
dose: 4.4 mg/kg/injection, schedule: Q01DX009 (ip), vehicle: other
  T/C: 195 % of control
dose: 4.4 mg/kg/injection, schedule: Q01DX009 (ip), vehicle: saline
  T/C: 193 % of control
dose: 6.7 mg/kg/injection, schedule: Q01DX009 (ip), vehicle: other
  T/C: 195 % of control
dose: 6.7 mg/kg/injection, schedule: Q01DX009 (ip), vehicle: saline
  T/C: 198 % of control
dose: 10.0 mg/kg/injection, schedule: Q01DX009 (ip), vehicle: other
  T/C: 205 % of control
dose: 10.0 mg/kg/injection, schedule: Q01DX009 (ip), vehicle: saline
  T/C: 206 % of control
dose: 15.0 mg/kg/injection, schedule: Q01DX009 (ip), vehicle: other
  T/C: 209 % of control
dose: 15.0 mg/kg/injection, schedule: Q01DX009 (ip), vehicle: saline
  T/C: 212 % of control
dose: 22.5 mg/kg/injection, schedule: Q01DX009 (ip), vehicle: other
  T/C: 162 % of control
dose: 22.5 mg/kg/injection, schedule: Q01DX009 (ip), vehicle: saline
  T/C: 219 % of control

## O=C(Oc1ccccc1)c1cc(O)c(O)c(O)c1
dose: 25.0 mg/kg/injection, schedule: Q01DX005 (ip), vehicle: saline with Tween-80
  T/C: 102 % of control
dose: 50.0 mg/kg/injection, schedule: Q01DX005 (ip), vehicle: saline with Tween-80
  T/C: 98 % of control
dose: 100.0 mg/kg/injection, schedule: Q01DX005 (ip), vehicle: saline with Tween-80
  T/C: 99 % of control
dose: 200.0 mg/kg/injection, schedule: Q01DX005 (ip), vehicle: saline with Tween-80
  T/C: 112 % of control

## CCN(CC)CCn1[nH]c2c3ccc(=O)cc3sc3c(NCCN)ccc1c32
dose: 1.56 mg/kg/injection, schedule: Q01DX005 (ip), vehicle: water
  T/C: 99 % of control
dose: 3.12 mg/kg/injection, schedule: Q01DX005 (ip), vehicle: water
  T/C: 95 % of control
dose: 6.25 mg/kg/injection, schedule: Q01DX005 (ip), vehicle: water
  T/C: 106 % of control
dose: 12.5 mg/kg/injection, schedule: Q01DX005 (ip), vehicle: water
  T/C: 91 % of control

## COc1cc(NS(C)(=O)=O)ccc1Nc1c2ccccc2nc2ccccc12
dose: 1.25 mg/kg/injection, schedule: Q04DX003 (ip), vehicle: other
  T/C: 102 % of control
dose: 2.5 mg/kg/injection, schedule: Q04DX003 (ip), vehicle: other
  T/C: 109 % of control
dose: 2.59 mg/kg/injection, schedule: Q04DX003 (ip), vehicle: other
  T/C: 107 % of control
dose: 4.32 mg/kg/injection, schedule: Q04DX003 (ip), vehicle: other
  T/C: 107 % of control
dose: 5.0 mg/kg/injection, schedule: Q04DX003 (ip), vehicle: other
  T/C: 109 % of control
dose: 7.2 mg/kg/injection, schedule: Q04DX003 (ip), vehicle: other
  T/C: 104 % of control
dose: 10.0 mg/kg/injection, schedule: Q04DX003 (ip), vehicle: other
  T/C: 109 % of control
dose: 12.0 mg/kg/injection, schedule: Q04DX003 (ip), vehicle: other
  T/C: 106 % of control
dose: 20.0 mg/kg/injection, schedule: Q04DX003 (ip), vehicle: other
  T/C: 105 % of control and 113 % of control

## COc1ccc2[nH]c3ccc4cc[n+](CCN5CCC(C6CCN(CC[n+]7ccc8ccc9[nH]c%10ccc(OC)cc%10c9c8c7)CC6)CC5)cc4c3c2c1
dose: 2.0 mg/kg/injection, schedule: Q01DX005 (ip), vehicle: water
  T/C: 119 % of control
dose: 4.0 mg/kg/injection, schedule: Q01DX005 (ip), vehicle: water
  T/C: 123 % of control
dose: 8.0 mg/kg/injection, schedule: Q01DX005 (ip), vehicle: water
  T/C: 152 % of control
dose: 16.0 mg/kg/injection, schedule: Q01DX005 (ip), vehicle: water
  T/C: 158 % of control
dose: 32.0 mg/kg/injection, schedule: Q01DX005 (ip), vehicle: water
  T/C: 163 % of control

## COc1cccc2c1C(CO)N1C(C#N)C3CC(C(=O)O)C(C1C2)N3C (centres undefined)
dose: 0.78 mg/kg/injection, schedule: Q01DX005 (ip), vehicle: suspension in saline
  T/C: 186 % of control
dose: 1.57 mg/kg/injection, schedule: Q01DX005 (ip), vehicle: suspension in saline
  T/C: 280 % of control
dose: 3.12 mg/kg/injection, schedule: Q01DX005 (ip), vehicle: saline
  T/C: 200 % of control
dose: 3.13 mg/kg/injection, schedule: Q01DX005 (ip), vehicle: suspension in saline
  T/C: 224 % of control
dose: 6.25 mg/kg/injection, schedule: Q01DX005 (ip), vehicle: saline
  T/C: 248 % of control
dose: 6.25 mg/kg/injection, schedule: Q01DX005 (ip), vehicle: suspension in saline
  T/C: 271 % of control
dose: 12.5 mg/kg/injection, schedule: Q01DX005 (ip), vehicle: saline
  T/C: 266 % of control
dose: 12.5 mg/kg/injection, schedule: Q01DX005 (ip), vehicle: suspension in saline
  T/C: 214 % of control
dose: 25.0 mg/kg/injection, schedule: Q01DX005 (ip), vehicle: saline
  T/C: 272 % of control
dose: 25.0 mg/kg/injection, schedule: Q01DX005 (ip), vehicle: suspension in saline
  T/C: 252 % of control
